Structures can show the parent of a compound that is named as a salt. Where two headings read alike, the source gives them in different places.
Assays:
human CYP1A2 [1] = target: T1, human CYP1A2 (Homo sapiens, UniProt P05177); test: biochemical
T1 sequence (P05177 1-516): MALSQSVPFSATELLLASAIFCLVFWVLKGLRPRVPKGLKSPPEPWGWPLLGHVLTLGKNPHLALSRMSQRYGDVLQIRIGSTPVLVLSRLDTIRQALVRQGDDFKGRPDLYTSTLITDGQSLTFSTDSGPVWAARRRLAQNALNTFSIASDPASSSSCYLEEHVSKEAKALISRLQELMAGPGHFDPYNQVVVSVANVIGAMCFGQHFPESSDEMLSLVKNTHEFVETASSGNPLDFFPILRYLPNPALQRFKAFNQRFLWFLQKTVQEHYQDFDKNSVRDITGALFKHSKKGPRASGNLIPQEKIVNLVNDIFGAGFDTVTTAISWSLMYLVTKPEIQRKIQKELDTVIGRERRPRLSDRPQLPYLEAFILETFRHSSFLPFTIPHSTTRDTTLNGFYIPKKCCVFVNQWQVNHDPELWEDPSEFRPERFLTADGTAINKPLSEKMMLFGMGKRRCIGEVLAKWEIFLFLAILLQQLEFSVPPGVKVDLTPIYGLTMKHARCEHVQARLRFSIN

human CYP2C9 [2] = target: T2, human CYP2C9 (Homo sapiens, UniProt P11712); test: biochemical
human CYP1A2 [3] = target: T1, human CYP1A2; conditions: for CYP1A2 Efficacy (in parenthesis): human
human CYP2C19 [4] = target: T3, human CYP2C19 (Homo sapiens, UniProt P33261)
human CYP2D6 = human CYP2D6 (Homo sapiens, UniProt P10635)
CYP3A4 = CYP3A4 (Homo sapiens, UniProt P08684)
human CYP2C9 [5] = target: T2, human CYP2C9
human CYP2C19 [6] = target: T3, human CYP2C19; test: biochemical
[7] = CYP1A2 AC50 (half-maximal activity concentration)
[8] = CYP2C9 AC50 (half-maximal activity concentration)
[9] = CYP1A2 IC50 (half-maximal inhibitory concentration)
[10] = CYP2C9 IC50 (half-maximal inhibitory concentration)
[11] = CYP2C19 IC50 (half-maximal inhibitory concentration)
[12] = CYP2C19 AC50 (half-maximal activity concentration)

T2 sequence (P11712 whole entry): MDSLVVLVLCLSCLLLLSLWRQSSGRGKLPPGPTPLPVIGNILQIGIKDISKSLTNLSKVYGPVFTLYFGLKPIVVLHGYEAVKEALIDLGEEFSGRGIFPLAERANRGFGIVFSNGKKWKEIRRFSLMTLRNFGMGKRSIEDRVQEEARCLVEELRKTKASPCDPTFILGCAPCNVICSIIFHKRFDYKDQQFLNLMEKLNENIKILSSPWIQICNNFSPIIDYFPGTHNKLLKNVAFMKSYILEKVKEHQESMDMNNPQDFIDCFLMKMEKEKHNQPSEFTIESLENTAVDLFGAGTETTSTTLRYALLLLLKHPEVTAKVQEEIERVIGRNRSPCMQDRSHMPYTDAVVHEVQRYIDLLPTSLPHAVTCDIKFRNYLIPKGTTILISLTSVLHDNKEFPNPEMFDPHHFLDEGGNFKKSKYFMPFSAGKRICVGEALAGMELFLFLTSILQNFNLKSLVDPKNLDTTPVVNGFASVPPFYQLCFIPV
human CYP2D6, sequence (P10635 whole entry): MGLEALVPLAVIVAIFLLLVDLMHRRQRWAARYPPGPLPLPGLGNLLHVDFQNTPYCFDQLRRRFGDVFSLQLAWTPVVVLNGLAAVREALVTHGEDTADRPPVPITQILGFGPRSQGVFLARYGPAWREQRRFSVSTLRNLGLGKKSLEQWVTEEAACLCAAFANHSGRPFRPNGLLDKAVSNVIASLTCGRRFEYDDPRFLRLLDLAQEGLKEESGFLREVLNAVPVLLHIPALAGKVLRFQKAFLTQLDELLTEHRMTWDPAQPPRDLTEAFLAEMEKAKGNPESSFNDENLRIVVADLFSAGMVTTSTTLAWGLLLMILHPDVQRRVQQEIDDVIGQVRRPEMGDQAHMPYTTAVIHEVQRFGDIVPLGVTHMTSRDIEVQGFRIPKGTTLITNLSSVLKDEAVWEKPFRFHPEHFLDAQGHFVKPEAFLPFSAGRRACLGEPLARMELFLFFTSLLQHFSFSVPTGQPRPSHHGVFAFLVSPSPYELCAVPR
T3 sequence (P33261 whole entry): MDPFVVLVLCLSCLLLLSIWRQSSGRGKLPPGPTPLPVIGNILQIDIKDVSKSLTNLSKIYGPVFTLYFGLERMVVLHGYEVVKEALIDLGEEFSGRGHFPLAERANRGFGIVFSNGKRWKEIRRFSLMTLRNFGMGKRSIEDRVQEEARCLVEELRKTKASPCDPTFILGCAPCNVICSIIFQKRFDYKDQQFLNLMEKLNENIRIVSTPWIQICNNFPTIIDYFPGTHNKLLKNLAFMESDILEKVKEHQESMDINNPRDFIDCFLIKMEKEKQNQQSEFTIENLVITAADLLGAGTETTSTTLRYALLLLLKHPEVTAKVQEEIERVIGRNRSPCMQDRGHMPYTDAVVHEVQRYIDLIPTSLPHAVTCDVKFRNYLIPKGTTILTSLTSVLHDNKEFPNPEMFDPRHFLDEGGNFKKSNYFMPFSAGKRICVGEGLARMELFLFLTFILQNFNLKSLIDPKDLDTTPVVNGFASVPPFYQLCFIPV
CYP3A4, sequence (P08684 whole entry): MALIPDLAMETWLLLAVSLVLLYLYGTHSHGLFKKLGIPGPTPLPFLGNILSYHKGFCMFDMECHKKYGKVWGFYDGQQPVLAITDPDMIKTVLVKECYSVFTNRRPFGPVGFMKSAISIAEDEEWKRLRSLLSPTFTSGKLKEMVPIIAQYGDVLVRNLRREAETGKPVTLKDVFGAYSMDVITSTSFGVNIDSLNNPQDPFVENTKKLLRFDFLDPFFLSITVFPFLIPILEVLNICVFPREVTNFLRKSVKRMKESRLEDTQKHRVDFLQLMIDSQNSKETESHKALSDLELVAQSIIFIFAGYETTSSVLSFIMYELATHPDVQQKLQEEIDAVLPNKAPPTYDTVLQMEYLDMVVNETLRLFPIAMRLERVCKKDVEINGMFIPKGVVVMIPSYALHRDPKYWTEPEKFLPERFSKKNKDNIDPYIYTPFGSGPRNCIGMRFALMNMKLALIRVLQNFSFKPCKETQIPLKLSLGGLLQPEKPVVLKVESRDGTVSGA

CC(C)OC(=O)C(C)(C)Oc1ccc(C(=O)c2ccc(Cl)cc2)cc1 [Fenofibrate]
AC50 (human CYP1A2 [1]; [7]): 19.9 µM
AC50 (human CYP2C9 [2]; [8]): 3.17 µM

Cc1cc(C)nc(NS(=O)(=O)c2ccc(N)cc2)n1 [Sulfamethazine]
CYP1A2 AC50 (half-maximal activity concentration) (human CYP1A2 [3]): Inconclusive inhibitor
CYP2C19 AC50 (half-maximal activity concentration) (human CYP2C19 [4]): Inactive
CYP2D6 AC50 (half-maximal activity concentration) (human CYP2D6): Inactive
CYP3A4 AC50 (half-maximal activity concentration) (CYP3A4): Inactive
AC50 (human CYP2C9 [2]; [8]): 54.8 µM

O=C(Nc1ccc(S(=O)(=O)N2CCOCC2)cc1)c1cc(Cl)ccc1NS(=O)(=O)c1ccc(Cl)s1 [Ataciguat]
CYP2C9 Efficacy (in parenthesis) (human CYP2C9 [5]; human): 0.05 ± 0.01 (-98 ± 7) %
CYP2C19 Efficacy (in parenthesis) (human CYP2C19 [4]; human): 41.28 ± 3.36 (-131 ± 15) %
IC50 (human CYP2C9 [2]): 0.05 ± 0.01 µM
IC50 (human CYP2C19 [6]): 41.3 ± 3.36 µM

CCc1oc2ccccc2c1C(=O)c1cc(Br)c(O)c(Br)c1 [Benzbromarone]
AC50 (human CYP1A2 [1]; [7]): 28.9 µM

O=C1OC(OC(=O)c2cccnc2Nc2cccc(C(F)(F)F)c2)c2ccccc21 (stereo not shown) [Talniflumate]
AC50 (human CYP1A2 [1]): 10 ± 5.3 µM
AC50 (human CYP2C9 [2]): 5.56 ± 2.56 µM

CCC(=O)c1ccc(O)cc1 [Paroxypropione]
CYP1A2 AC50 (half-maximal activity concentration) (human CYP1A2 [3]): Inconclusive inhibitor
CYP2C19 AC50 (half-maximal activity concentration) (human CYP2C19 [4]): Inactive
CYP2D6 AC50 (half-maximal activity concentration) (human CYP2D6): Inactive
CYP3A4 AC50 (half-maximal activity concentration) (CYP3A4): Inactive
AC50 (human CYP2C9 [2]; [8]): 15.6 µM

O=C(Nc1ccc(Cl)c(Cl)c1)C1CC1 [Cypromid]
CYP1A2 Efficacy (in parenthesis) (human CYP1A2 [3]): 0.54 ± 0.08 (-97 ± 6) %
CYP2C9 Efficacy (in parenthesis) (human CYP2C9 [5]; human): 25.27 ± 7.04 (-70 ± 11) %
CYP2C19 Efficacy (in parenthesis) (human CYP2C19 [4]; human): 12.07 ± 3.02 (-106 ± 21) %
IC50 (human CYP1A2 [1]; [9]): 0.54 µM
IC50 (human CYP2C9 [2]; [10]): 25.3 µM
IC50 (human CYP2C19 [6]; [11]): 12.1 µM

CN(C)C(=S)SC(=S)N(C)C [Tetramethylthiuram monosulfide]
AC50 (human CYP1A2 [1]; [7]): 41.9 µM
AC50 (human CYP2C9 [2]; [8]): 24.3 µM
AC50 (human CYP2C19 [6]; [12]): 22.8 µM

O=C(OCc1ccccc1)c1ccccc1 [Benzyl benzoate]
AC50 (human CYP1A2 [1]; [7]): 14.9 µM
AC50 (human CYP2C9 [2]; [8]): 27.7 µM
AC50 (human CYP2C19 [6]; [12]): 21.3 µM

Cresyl diphenyl phosphate
AC50 (human CYP1A2 [3]): 8.9 µM
AC50 (human CYP2C9 [5]): 6.19 µM
AC50 (human CYP2C19 [4]): 4.18 µM
CYP2D6 AC50 (half-maximal activity concentration) (human CYP2D6): Inactive

NS(=O)(=O)c1cc2c(cc1Cl)NCNS2(=O)=O [Hydrochlorothiazide]
CYP2C19 AC50 (half-maximal activity concentration) (human CYP2C19 [4]): Inactive
CYP2D6 AC50 (half-maximal activity concentration) (human CYP2D6): Inactive
CYP3A4 AC50 (half-maximal activity concentration) (CYP3A4): Inactive

Fc1ccc([C@@H]2CCNC[C@H]2COc2ccc3c(c2)OCO3)cc1 [paroxetine, reference compound]
IC50 (human CYP1A2 [1]; [9]): 15.2 µM

C[C@]12CC[C@@H]3c4ccc(O)cc4CC[C@H]3[C@@H]1CC[C@@H]2OC(=O)CCC1CCCC1 [Estradiol cypionate]
AC50 (human CYP1A2 [1]; [7]): 16.6 µM
AC50 (human CYP2C9 [2]; [8]): 16.1 µM
AC50 (human CYP2C19 [6]; [12]): 26 µM

NS(=O)(=O)c1cc2c(cc1Cl)CN(C1CCCCC1)C2=O [Chlorexolone]
CYP1A2 AC50 (half-maximal activity concentration) (human CYP1A2 [3]): Inactive
CYP2C19 AC50 (half-maximal activity concentration) (human CYP2C19 [4]): Inconclusive activator
CYP2D6 AC50 (half-maximal activity concentration) (human CYP2D6): Inactive
CYP3A4 AC50 (half-maximal activity concentration) (CYP3A4): Inactive
AC50 (human CYP2C9 [2]; [8]): 14.4 µM

CNCCC(Oc1ccc(C(F)(F)F)cc1)c1ccccc1 (stereo not shown) [Fluoxetine hydrochloride]
IC50 (human CYP1A2 [1]; [9]): 20.9 µM
IC50 (human CYP2C9 [2]; [10]): 34.2 µM

CCOC(=O)c1ccccc1C(=O)OCC [Diethyl phthalate]
AC50 (human CYP1A2 [1]; [7]): 3.24 µM

CN1CC[C@]23c4c5ccc(O)c4O[C@H]2[C@@H](O)C=C[C@H]3[C@H]1C5 [Morphine sulfate pentahydrate]
CYP1A2 AC50 (half-maximal activity concentration) (human CYP1A2 [3]): Inactive
CYP2C9 AC50 (half-maximal activity concentration) (human CYP2C9 [5]): Inactive
CYP2C19 AC50 (half-maximal activity concentration) (human CYP2C19 [4]): Inactive

CCCCCNC(=N)N/N=C/c1c[nH]c2ccc(OC)cc12 [Tegaserod maleate]
AC50 (human CYP1A2 [1]): 4.12 ± 0.93 µM
AC50 (human CYP2C9 [2]): 33.3 ± 14 µM

O=C(NOCC1CC1)c1ccc(F)c(F)c1Nc1ccc(I)cc1Cl [PD-184352]
IC50 (human CYP1A2 [1]): 14.4 ± 0.97 µM
IC50 (human CYP2C9 [2]): 0.68 ± 0.17 µM
IC50 (human CYP2C19 [6]): 0.39 ± 0.13 µM

Cc1cc(O)c(Cl)c(C)c1Cl [2,4-Dichloro-3,5-dimethylphenol]
CYP2D6 AC50 (half-maximal activity concentration) (human CYP2D6): Inactive
AC50 (human CYP1A2 [1]): 14.4 µM
AC50 (human CYP2C9 [2]): 9.3 µM
AC50 (human CYP2C19 [6]): 71.9 µM

CC(=O)c1ccc(O)cc1 [4-Hydroxyacetophenone]
CYP1A2 AC50 (half-maximal activity concentration) (human CYP1A2 [3]): Inconclusive inhibitor
CYP2C19 AC50 (half-maximal activity concentration) (human CYP2C19 [4]): Inactive
CYP2D6 AC50 (half-maximal activity concentration) (human CYP2D6): Inactive
CYP3A4 AC50 (half-maximal activity concentration) (CYP3A4): Inactive
AC50 (human CYP2C9 [2]): 36.2 µM

COc1c2occc2cc2ccc(=O)oc12 [8-Methoxypsoralen]
CYP2C9 Efficacy (in parenthesis) (human CYP2C9 [5]; human): 7.56 ± 2.14 (-95 ± 11) %
CYP2C19 Efficacy (in parenthesis) (human CYP2C19 [4]; human): 12.67 ± 4.61 (-156 ± 24) %
CYP2D6 Efficacy (in parenthesis) (human CYP2D6; human): 7.42 ± 0.95 (-106 ± 2) %
IC50 (human CYP2C9 [2]; [10]): 7.56 µM

Cc1c(Cl)cccc1Nc1ccccc1C(=O)O [Tolfenamic acid]
AC50 (human CYP1A2 [1]; [7]): 34.8 µM
AC50 (human CYP2C9 [2]; [8]): 21 µM

CC(C)Oc1ccc2c(=O)c(-c3ccccc3)coc2c1 [Ipriflavone]
AC50 (human CYP1A2 [1]; [7]): 11.6 µM
AC50 (human CYP2C9 [2]; [8]): 20.1 µM

O=[N+]([O-])c1cccc2cccc([N+](=O)[O-])c12 [1,8-Dinitronaphthalene]
CYP2D6 AC50 (half-maximal activity concentration) (human CYP2D6): Inconclusive inhibitor
CYP3A4 AC50 (half-maximal activity concentration) (CYP3A4): Inconclusive inhibitor

CCOc1cc(N)c(Cl)cc1C(=O)NCC1CN(Cc2ccc(F)cc2)CCO1 (stereo not shown) [Mosapride citrate]
IC50 (human CYP1A2 [1]; [9]): 1.14 µM
IC50 (human CYP2C19 [6]; [11]): 9 µM

Brc1ccccc1-c1ccccc1 [2-Bromobiphenyl]
AC50 (human CYP1A2 [1]; [7]): 17 µM

CCC(OC(C)=O)C(CC(C)NC)(c1ccccc1)c1ccccc1.Cl (stereo not shown)
CYP2C9 Efficacy (in parenthesis) (human CYP2C9 [5]): 63.02 ± 38.37 (-35 ± 6) %
IC50 (human CYP2C9 [5]): 63 µM
CYP2C19 Efficacy (in parenthesis) (human CYP2C19 [4]): 21.99 ± 10.33 (-95 ± 7) %
IC50 (human CYP2C19 [4]): 22 µM
CYP2D6 Efficacy (in parenthesis) (human CYP2D6): 15.52 ± 2.14 (-95 ± 2) %
IC50 (human CYP2D6): 15.5 µM

O=C(c1ccccc1)c1ccccc1 [Benzophenone]
AC50 (human CYP1A2 [1]; [7]): 13.7 µM
AC50 (human CYP2C9 [2]; [8]): 28.4 µM

CCCOC(=O)c1cncn1C(C)c1ccccc1 (stereo not shown) [Propoxate]
IC50 (human CYP1A2 [1]; [9]): 18.9 µM
IC50 (human CYP2C9 [2]; [10]): 13.3 µM
IC50 (human CYP2C19 [6]; [11]): 3.09 µM

c1ccc2[nH]c(-c3cscn3)nc2c1 [thiabendazole, reference compound]
IC50 (human CYP1A2 [1]; IC50 CYP1A2 assay): 2.1 µM

COc1ccnc2c1CCCCC2[S+]([O-])c1nc2ccccc2[nH]1 (stereo not shown) [Nepaprazole]
IC50 (human CYP1A2 [1]): 14.9 ± 0.97 µM
IC50 (human CYP2C9 [2]): 13.9 ± 1.59 µM
IC50 (human CYP2C19 [6]): 8.96 ± 4.72 µM

Cc1cc2c(cc1S(N)(=O)=O)S(=O)(=O)CCC2 [Meticrane]
CYP1A2 AC50 (half-maximal activity concentration) (human CYP1A2 [3]): Inactive
CYP2C19 AC50 (half-maximal activity concentration) (human CYP2C19 [4]): Inactive
CYP2D6 AC50 (half-maximal activity concentration) (human CYP2D6): Inactive
CYP3A4 AC50 (half-maximal activity concentration) (CYP3A4): Inactive
AC50 (human CYP2C9 [2]): 8.15 ± 1.47 µM

Clc1ccc(C(c2ccc(Cl)cc2)C(Cl)(Cl)Cl)cc1 [p,p'-DDT]
CYP1A2 Efficacy (in parenthesis) (human CYP1A2 [3]): 9.36 ± 3.19 (-74 ± 16) %
CYP2C9 Efficacy (in parenthesis) (human CYP2C9 [5]; human): 4.33 ± 1.82 (-100 ± 9) %
CYP2C19 Efficacy (in parenthesis) (human CYP2C19 [4]; human): 0.04 ± 0.02 (-132 ± 4) %
IC50 (human CYP1A2 [1]; [9]): 9.36 µM
IC50 (human CYP2C9 [2]; [10]): 4.33 µM
IC50 (human CYP2C19 [6]; [11]): 0.04 µM

CC(c1cc2ccccc2s1)N(O)C(N)=O (stereo not shown) [zileuton, reference compound]
IC50 (human CYP1A2 [1]): 5.3 µM

O=C1c2ccccc2CCc2ccccc21 [Dibenzosuberone]
AC50 (human CYP1A2 [1]): 1.58 µM
AC50 (human CYP2C9 [2]): 33.4 µM
AC50 (human CYP2C19 [6]): 8.39 µM

O=C(O)Cc1sc(-c2ccccc2)nc1-c1ccc(Cl)cc1 [Fentiazac]
AC50 (human CYP1A2 [1]; [7]): 24 µM
AC50 (human CYP2C9 [2]; [8]): 6.24 µM
